Data published in ChEMBL document CHEMBL3779786, “Tabtoxinine--lactam is a stealth -lactam antibiotic that evades -lactamase-mediated antibiotic resistance” (Medchemcomm, 2016).
Converted amounts (≈) assume the structure as drawn. The source made the active and inactive calls. The calls are words filed in the database; no cut-off is given here.

How the values were obtained:
[1] = Drug level assessed as 1 uM Escherichia coli DH5alpha beta lactamase TEM-1 mediated compound formation treated with benzyl penicillin at 1 mM after 5 hrs by LCMS analysis; format: ADME; settings: escherichia coli dh5[alpha], 1000 µM
[2] = Drug level assessed as 2 nM Escherichia coli DH5alpha beta lactamase TEM-1 mediated compound formation treated with benzyl penicillin at 1 mM after 30 mins by HPLC analysis; format: ADME; settings: escherichia coli dh5[alpha], 0.5 h, 1000 µM
[3] = Drug level assessed as 2 nM Escherichia coli DH5alpha beta lactamase TEM-1 mediated compound formation treated with benzyl penicillin at 1 mM after 30 mins by LCMS analysis; format: ADME; settings: escherichia coli dh5[alpha], 0.5 h, 1000 µM
[4] = Drug level assessed as 1 uM Escherichia coli DH5alpha beta lactamase CTX-M-9 mediated compound formation treated with benzyl penicillin at 1 mM after 5 hrs by LCMS analysis; format: ADME; settings: escherichia coli dh5[alpha], 1000 µM
[5] = Drug level assessed as 1 uM Escherichia coli DH5alpha beta lactamase TEM-1 mediated compound formation treated with benzyl penicillin at 1 mM after 5 hrs by HPLC analysis; format: ADME; settings: escherichia coli dh5[alpha], 1000 µM
[6] = Drug level assessed as 1 uM Escherichia coli DH5alpha beta lactamase CTX-M-9 mediated compound formation treated with benzyl penicillin at 1 mM after 5 hrs by HPLC analysis; format: ADME; settings: escherichia coli dh5[alpha], 1000 µM
[7] = Drug level assessed as 2 nM Escherichia coli DH5alpha beta lactamase CTX-M-9 mediated compound formation treated with benzyl penicillin at 1 mM after 30 mins by HPLC analysis; format: ADME; settings: escherichia coli dh5[alpha], 0.5 h, 1000 µM
[8] = Drug level assessed as 2 nM Escherichia coli DH5alpha beta lactamase CTX-M-9 mediated compound formation treated with benzyl penicillin at 1 mM after 30 mins by LCMS analysis; format: ADME; settings: escherichia coli dh5[alpha], 0.5 h, 1000 µM
[9] = tested on: Escherichia coli; assay: Antibacterial activity against Escherichia coli BL21(DE3) expressing beta lactamase TEM-1 in glutamine-free minimal media after 24 hrs by broth microdilution method; format: functional
[10] = tested on: Escherichia coli; assay: Antibacterial activity against Escherichia coli DH5alpha expressing beta lactamase NDM-1 in glutamine-free minimal media after 24 hrs by broth microdilution method; format: functional; settings: DH5[alpha]
[11] = tested on: Escherichia coli; assay: Antibacterial activity against Escherichia coli BL21(DE3) expressing beta lactamase CTX-M-9 in glutamine-free minimal media after 24 hrs by broth microdilution method; format: functional
[12] = tested on: Escherichia coli; assay: Antibacterial activity against Escherichia coli DH5alpha expressing beta lactamase TEM-1 in glutamine-free minimal media after 24 hrs by broth microdilution method; format: functional; settings: DH5[alpha]
[13] = tested on: Escherichia coli; assay: Antibacterial activity against Escherichia coli BL21(DE3) in glutamine-free minimal media after 24 hrs by broth microdilution method; format: functional
[14] = tested on: Escherichia coli; assay: Antibacterial activity against Escherichia coli BL21(DE3) expressing beta lactamase CTX-M-9 with no leader sequence in glutamine-free minimal media after 24 hrs by broth microdilution method; format: functional
[15] = tested on: Escherichia coli; assay: Antibacterial activity against Escherichia coli DH5alpha in glutamine-free minimal media after 24 hrs by broth microdilution method; format: functional; settings: DH5[alpha]
[16] = tested on: Escherichia coli; assay: Antibacterial activity against Escherichia coli BL21(DE3) expressing beta lactamase TEM-64 in glutamine-free minimal media after 24 hrs by broth microdilution method; format: functional
[17] = tested on: Escherichia coli; assay: Antibacterial activity against Escherichia coli DH5alpha expressing beta lactamase OXA-24/40 in glutamine-free minimal media after 24 hrs by broth microdilution method; format: functional; settings: DH5[alpha]
[18] = tested on: Escherichia coli; assay: Antibacterial activity against Escherichia coli DH5alpha expressing beta lactamase SHV-12 in glutamine-free minimal media after 24 hrs by broth microdilution method; format: functional; settings: DH5[alpha]
[19] = tested on: Escherichia coli; assay: Antibacterial activity against Escherichia coli BL21(DE3) expressing beta lactamase TEM-1 with no leader sequence in glutamine-free minimal media after 24 hrs by broth microdilution method; format: functional
[20] = tested on: Escherichia coli; assay: Antibacterial activity against Escherichia coli DH5alpha expressing beta lactamase SHV-5 in glutamine-free minimal media after 24 hrs by broth microdilution method; format: functional; settings: DH5[alpha]
[21] = tested on: Escherichia coli; assay: Antibacterial activity against Escherichia coli DH5alpha expressing beta lactamase TEM-24 in glutamine-free minimal media after 24 hrs by broth microdilution method; format: functional; settings: DH5[alpha]
[22] = tested on: Escherichia coli; assay: Antibacterial activity against Escherichia coli DH5alpha expressing beta lactamase KPC-3 in glutamine-free minimal media after 24 hrs by broth microdilution method; format: functional; settings: DH5[alpha]
[23] = tested on: Escherichia coli; assay: Antibacterial activity against Escherichia coli DH5alpha expressing beta lactamase CTX-M-15 in glutamine-free minimal media after 24 hrs by broth microdilution method; format: functional; settings: DH5[alpha]
[24] = tested on: Escherichia coli; assay: Antibacterial activity against Escherichia coli DH5alpha expressing beta lactamase VIM-2 in glutamine-free minimal media after 24 hrs by broth microdilution method; format: functional; settings: DH5[alpha]
[25] = Drug metabolism assessed as 2 nM Escherichia coli DH5alpha beta lactamase CTX-M-9 mediated metabolite formation at 1 mM after 30 mins by LCMS analysis; format: ADME; settings: escherichia coli dh5[alpha], 0.5 h, 1000 µM
[26] = Drug metabolism assessed as 2 nM Escherichia coli DH5alpha beta lactamase TEM-1 mediated metabolite formation at 1 mM after 30 mins by LCMS analysis; format: ADME; settings: escherichia coli dh5[alpha], 0.5 h, 1000 µM
[27] = Drug metabolism assessed as 1 uM Escherichia coli DH5alpha beta lactamase TEM-1 mediated metabolite formation at 1 mM after 5 hrs by HPLC analysis; format: ADME; settings: escherichia coli dh5[alpha], 1000 µM
[28] = tested on: Escherichia coli; assay: Bactericidal activity against Escherichia coli; format: functional, organism-based
[29] = Drug metabolism assessed as 1 uM Escherichia coli DH5alpha beta lactamase TEM-1 mediated metabolite formation at 1 mM after 5 hrs by LCMS analysis; format: ADME; settings: escherichia coli dh5[alpha], 1000 µM
[30] = tested on: Escherichia coli; assay: Antibacterial activity against Escherichia coli in glutamine containing nutrient broth at 0.06 to 128 uM; format: functional, organism-based
[31] = Drug metabolism assessed as 2 nM Escherichia coli DH5alpha beta lactamase CTX-M-9 mediated metabolite formation at 1 mM after 30 mins by HPLC analysis; format: ADME; settings: escherichia coli dh5[alpha], 0.5 h, 1000 µM
[32] = Drug metabolism assessed as 2 nM Escherichia coli DH5alpha beta lactamase TEM-1 mediated metabolite formation at 1 mM after 30 mins by HPLC analysis; format: ADME; settings: escherichia coli dh5[alpha], 0.5 h, 1000 µM
[33] = tested on: Staphylococcus aureus; assay: Bacteriostatic activity against Staphylococcus aureus in glutamine-free minimal media; format: functional, organism-based
[34] = Drug metabolism assessed as 1 uM Escherichia coli DH5alpha beta lactamase CTX-M-9 mediated metabolite formation at 1 mM after 5 hrs by HPLC analysis; format: ADME; settings: escherichia coli dh5[alpha], 1000 µM
[35] = Drug metabolism assessed as 1 uM Escherichia coli DH5alpha beta lactamase CTX-M-9 mediated metabolite formation at 1 mM after 5 hrs by LCMS analysis; format: ADME; settings: escherichia coli dh5[alpha], 1000 µM
[36] = Drug metabolism assessed as 1 uM Escherichia coli DH5alpha beta lactamase CTX-M-9 mediated formation of benzyl penicilloic acid at 1 mM after 5 hrs by LCMS analysis; format: ADME; settings: escherichia coli dh5[alpha], 1000 µM
[37] = Drug metabolism assessed as 2 nM Escherichia coli DH5alpha beta lactamase TEM-1 mediated formation of benzyl penicilloic acid at 1 mM after 30 mins by LCMS analysis; format: ADME; settings: escherichia coli dh5[alpha], 0.5 h, 1000 µM
[38] = Drug metabolism assessed as 1 uM Escherichia coli DH5alpha beta lactamase TEM-1 mediated formation of benzyl penicilloic acid at 1 mM after 5 hrs by HPLC analysis; format: ADME; settings: escherichia coli dh5[alpha], 1000 µM
[39] = Drug metabolism assessed as 2 nM Escherichia coli DH5alpha beta lactamase CTX-M-9 mediated formation of benzyl penicilloic acid at 1 mM after 30 mins by LCMS analysis; format: ADME; settings: escherichia coli dh5[alpha], 0.5 h, 1000 µM
[40] = Drug metabolism assessed as 2 nM Escherichia coli DH5alpha beta lactamase CTX-M-9 mediated formation of benzyl penicilloic acid at 1 mM after 30 mins by HPLC analysis; format: ADME; settings: escherichia coli dh5[alpha], 0.5 h, 1000 µM
[41] = Drug metabolism assessed as 1 uM Escherichia coli DH5alpha beta lactamase CTX-M-9 mediated formation of benzyl penicilloic acid at 1 mM after 5 hrs by HPLC analysis; format: ADME; settings: escherichia coli dh5[alpha], 1000 µM
[42] = Drug metabolism assessed as 2 nM Escherichia coli DH5alpha beta lactamase TEM-1 mediated formation of benzyl penicilloic acid at 1 mM after 30 mins by HPLC analysis; format: ADME; settings: escherichia coli dh5[alpha], 0.5 h, 1000 µM
[43] = Drug metabolism assessed as 1 uM Escherichia coli DH5alpha beta lactamase TEM-1 mediated formation of benzyl penicilloic acid at 1 mM after 5 hrs by LCMS analysis; format: ADME; settings: escherichia coli dh5[alpha], 1000 µM
[44] = tested on: Escherichia coli; assay: Antibacterial activity against Escherichia coli ATCC 25922 in glutamine-free minimal media after 24 hrs by broth microdilution method; format: functional; settings: ATCC 25922, 24 h

Row | Compound | MIC90 [9] | MIC90 [10] | MIC90 [11] | MIC90 [12] | MIC90 [13] | MIC90 [14] | MIC90 [15] | MIC90 [16] | MIC90 [17] | MIC90 [18] | MIC90 [19] | MIC90 [20] | MIC90 [21] | MIC90 [22] | MIC90 [23] | MIC90 [24] | Drug metabolism [25] | Drug metabolism [26] | Drug metabolism [27] | Drug metabolism [29] | other results
1 | CC1(C)S[C@H]([C@H](NC(=O)Cc2ccccc2)C(=O)O)N[C@H]1C(=O)O | – | – | – | – | – | – | – | – | – | – | – | – | – | – | – | – | – | – | – | – | Drug metabolism [1]: metabolite_detected; Drug metabolism [2]: metabolite_detected; Drug metabolism [3]: metabolite_detected; Drug metabolism [4]: metabolite_detected; Drug metabolism [5]: metabolite_detected; Drug metabolism [6]: metabolite_detected; Drug metabolism [7]: metabolite_detected; Drug metabolism [8]: metabolite_detected
2 | CC1(C)S[C@@H]2[C@H](NC(=O)[C@H](N)c3ccccc3)C(=O)N2[C@H]1C(=O)O [AMPICILLIN] | > 128 µM | > 128 µM | 128 µM (≈ 44.7 µg/mL) | > 128 µM | 0.5 µM (≈ 0.175 µg/mL) | 128 µM (≈ 44.7 µg/mL) | 2 µM (≈ 0.699 µg/mL) | > 128 µM | > 128 µM | > 128 µM | > 128 µM | > 128 µM | > 128 µM | > 128 µM | > 128 µM | > 128 µM | – | – | – | – | –
3 | C[C@@H](O)[C@H](NC(=O)[C@@H](N)CC[C@]1(O)CNC1=O)C(=O)O | 4 µM (≈ 1.16 µg/mL) | 0.5 µM (≈ 0.145 µg/mL) | 4 µM (≈ 1.16 µg/mL) | 0.25 µM (≈ 0.0723 µg/mL) | 8 µM (≈ 2.31 µg/mL) | 8 µM (≈ 2.31 µg/mL) | 0.5 µM (≈ 0.145 µg/mL) | 16 µM (≈ 4.63 µg/mL) | 2 µM (≈ 0.579 µg/mL) | 0.25 µM (≈ 0.0723 µg/mL) | 16 µM (≈ 4.63 µg/mL) | < 0.031 µM | 0.0625 µM (≈ 0.0181 µg/mL) | 0.5 µM (≈ 0.145 µg/mL) | 0.125 µM (≈ 0.0362 µg/mL) | 2 µM (≈ 0.579 µg/mL) | metabolite_detected | metabolite_detected | metabolite_detected | metabolite_detected | Activity [28]: inactive; Activity [30]: inactive; Drug metabolism [31]: metabolite_detected; Drug metabolism [32]: metabolite_detected; Activity [33]: Active; Drug metabolism [34]: metabolite_detected; Drug metabolism [35]: metabolite_detected
4 | GENTAMICIN | 1.4 µM | 1 µM | 1.4 µM | 1 µM | 1.4 µM | 1.4 µM | 0.25 µM | 1.4 µM | 0.5 µM | 0.5 µM | 1.4 µM | < 0.25 µM | 0.5 µM | 0.5 µM | 1 µM | 1 µM | – | – | – | – | –
5 | CC1(C)S[C@@H]2[C@H](NC(=O)Cc3ccccc3)C(=O)N2[C@H]1C(=O)O [PENICILLIN G] | > 128 µM | – | 128 µM (≈ 42.8 µg/mL) | – | 4 µM (≈ 1.34 µg/mL) | 128 µM (≈ 42.8 µg/mL) | – | > 128 µM | – | – | > 128 µM | – | – | – | – | – | – | – | – | – | Drug metabolism [36]: metabolite_detected; Drug metabolism [37]: metabolite_detected; Drug metabolism [38]: metabolite_detected; Drug metabolism [39]: metabolite_detected; Drug metabolism [40]: metabolite_detected; Drug metabolism [41]: metabolite_detected; Drug metabolism [42]: metabolite_detected; Drug metabolism [43]: metabolite_detected
6 | N[C@@H](CC[C@]1(O)CNC1=O)C(=O)O | – | – | – | – | – | – | – | – | – | – | – | – | – | – | – | – | metabolite_detected | metabolite_detected | metabolite_detected | metabolite_detected | MIC90 [44]: > 128 µM; Drug metabolism [31]: metabolite_detected; Drug metabolism [32]: metabolite_detected; Drug metabolism [34]: metabolite_detected; Drug metabolism [35]: metabolite_detected
